# Results published in US9233117B2, “Treatment of inflammatory lesions of rosacea with ivermectin” (Galderma S.A., priority 2013, dated 2016).
# Several values for one entry are separate records, joined by “and”; a condition that tells them apart may be missing. Equal values may be shown once.
# Tests used:
# subjects with PPR = experiment: Study 1 and Study 2: once-daily ivermectin 1% cream vs vehicle in moderate to severe PPR (Example 3); type: in vivo, human
# Procedure: Both studies were conducted in accordance with the ethical principles of the Declaration of Helsinki and Good Clinical Practices, and in compliance with local regulatory requirements.
# Each study had three parts. In the first part of the study, subjects with PPR were treated with ivermectin 1% cream (IVM 1%) or vehicle once daily at bedtime for 12 weeks. In the second part of the study, subjects initially treated with IVM 1% once daily at bedtime continued the same treatment, while subjects treated with the vehicle once daily switched to topical treatment with azelaic acid 15% gel twice daily, in the morning and evening. The third part of the study consisted of 4 weeks safety follow-up, without treatment.
# Eligible subjects were 18 years or older, with moderate or severe papulopustular rosacea as noted by an IGA of 3 (“several small or large papules/pustules, moderate erythema”) or 4 (“numerous small and/or large papules/pustules, severe erythema”), and presenting with 15-70 facial inflammatory lesions (papules and pustules). […]
# Efficacy assessments at each visit were the IGA of disease severity, and inflammatory lesion counts (papules and pustules) on each of the five facial regions (forehead, chin, nose, right cheek, left cheek). Safety assessments included adverse events (AEs) throughout the study, local tolerance parameters (stinging/burning, dryness, itching) at each study visit evaluated on a 4-point scale [from 0 (none) to 3 (severe)], and laboratory parameters (hematology and biochemistry) measured before and after treatment. […]
# The co-primary efficacy endpoints in both studies were the success rate based on the IGA outcome and absolute change from baseline in inflammatory lesion counts at the end of week 12 of the studies. The success rate based on IGA score [% of subjects who achieved “clear” or “almost clear” ratings on the IGA scale at week 12 (ITT-LOCF)] was analyzed by the Cochran-Mantel-Haenszel (CMH) test stratified by analysis site, using the general association statistic. […]
# [1] = orally administered; cited from earlier work
# [2] = Plasma pharmacokinetic study of ivermectin 1% cream in subjects with severe PPR (Example 5); type: in vivo, human
# Procedure: A multi-center, open-label, single treatment study was conducted to assess the pharmacokinetic (PK) profile of ivermectin 1% (w/w) cream in subjects with severe PPR. A maximized dose of about 2 mg/cm^2 (1 g of ivermectin 1% (w/w) cream, equivalent to 10 mg ivermectin per application) was applied to the face once daily for 4 weeks. The treatment was followed by a 28-Day follow-up period.
# A total of seventeen subjects received at least one dose of treatment. All subjects provided PK parameters at some time points, but fifteen (9 females and 6 males) provided full PK profiles at Days 0, 14 and 28.
# Blood samples for determination of ivermectin levels in plasma were taken from all subjects before application on Days 0, 7, 14, 21 and 28 (pre-dose samples corresponding to Cmin). Additional blood samples were taken on Days 0, 14 and 28 at 1, 3, 6, 9 and 12 hours after application. At, the end of the 28-Day treatment, blood samples were taken on Days 29, 30, 32, 35, 38, 42, 49 and 56 during the follow-up period. The plasma was isolated and frozen (−20° C.) pending analysis.
# The pharmacokinetic analysis was performed. From the individual plasma concentrations, the pharmacokinetic parameters were determined by non-compartmental method Kinetica™ sofware, version 4.3, InnaPhase Corporation, Philadelphia, USA).
# AUC0-24 H was calculated by the mixed linear-logarithmic trapezoidal method at Day 0, 14 and 28. BLQ was imputed as zero in the individual PK profile.
# During the follow up period, the following parameters were measured: • (1) AUC0-t: Area under the concentration-time curve calculated by the mixed linear-logarithmic trapezoidal method from T0 up to the sampling time corresponding to the last quantifiable concentration (Clast); • (2) Kel: The elimination rate constant value (kel) was obtained by linear regression of log-linear terminal phase of concentration-time profile using at least 3 data points, excluding Cmax, otherwise kel was not determined. The acceptability criteria for determination of kel was a coefficient of regression more or equal to 0.98. When kel was not determined, AUC0-inf and t½ were not reported; • (3) t½: The terminal half-life value (t½) was calculated using the equation ln2/kel; • (4) AUC0-inf: Area under the plasma concentration-time curve calculated by the mixed linear-logarithmic trapezoidal method from T0 and extrapolated to time infinity as: AUC0-inf=AUC0-t+Clast/kel.
# When the extrapolation represented more than 20%, AUC0-inf and t1/2 […]. Mean values, standard deviation (SD), lowest individual value (Min), maximal individual value (Max) and coefficient of variation (CV) were calculated and reported on each variables (Arithmetic mean for AUC, Cmax, Tmax and harmonic mean for t1/2). Conversely to the protocol, the standard error of mean (SEM) were not calculated and not reported. In addition a statistical analysis was performed on ivermectin specific parameters (including the accumulation ratios).
substance,measurement,setting,value
ivermectin,plasma accumulation of ivermectin,subjects with PPR; 52-week treatment period (Phase 3 study),no plasma accumulation
same,median reduction from baseline in inflammatory lesion counts,"subjects with PPR; Study 1, week 2",about 30%
same,median reduction from baseline in inflammatory lesion counts,"subjects with PPR; Study 2, week 2",27.3%
same,"t1/2, typical",[1],around 18 hours
same,"AUC0-24 H, Min-Max",[2]; Day 0,[3.16-21.28] ng · h/mL
same,"AUC0-24 H, mean ± SD",[2]; Day 0,9.29 ± 5.40 ng·h/mL
same,"Pre-dose/Cmin, Min-Max",[2]; Day 0,[0.17-0.86] ng/mL
same,"Tmax, Min-Max",[2]; Day 0,[1-24] h
same,"Pre-dose/Cmin, mean ± SD","[2]; Day 0 (24 hours after D0), plasma, 1 g ivermectin 1% cream on the face once daily",0.37 ng/mL and 0.37 ± 0.21^(a) ng/mL
same,"Cmax, mean ± SD",[2]; Day 0 (single topical application),0.69 ng/mL
same,"Pre-dose/Cmin, Min-Max",[2]; Day 7,[0.56-3.26] ng/mL
same,"Pre-dose/Cmin, mean ± SD","[2]; Day 7, plasma, ivermectin 1% cream once daily",1.17 ± 0.88 ng/mL
same,"Pre-dose/Cmin, Min-Max",[2]; Day 14,[0.58-2.34] ng/mL
same,"Tmax, Min-Max",[2]; Day 14,[0-24] h
same,"AUC0-24 H, mean ± SD",[2]; Day 14 (steady state),36.14 ± 15.56 ng·h/mL
same,"Cmax, mean ± SD",[2]; Day 14 (steady state),2.10 ± 1.04 ng/mL
same,"Tmax, mean ± SD",[2]; Day 14 (steady state),10 ± 8 h
same,"Pre-dose/Cmin, mean ± SD","[2]; Day 14, plasma, ivermectin 1% cream once daily",1.26±0.53 ng/mL and 1.26 ± 0.53^(c) ng/mL
same,"Pre-dose/Cmin, Min-Max",[2]; Day 21,[0.66-3.25] ng/mL
same,"Pre-dose/Cmin, mean ± SD","[2]; Day 21, plasma, ivermectin 1% cream once daily",1.36±0.66 ng/mL and 1.36 ± 0.66^(c) ng/mL
same,"AUC0-24 H, mean ± SD",[2]; Day 28,35.43 ± 14.42 ng·h/mL
same,"Cmax, Min-Max",[2]; Day 28,[0.58-3.36] ng/mL
same,"Cmax, mean ± SD",[2]; Day 28,1.74 ± 0.77 ng/mL
same,"Pre-dose/Cmin, Min-Max",[2]; Day 28,[0.53-3.00] ng/mL
same,"Tmax, Min-Max",[2]; Day 28,[3-24] h
same,"Tmax, mean ± SD",[2]; Day 28,11 ± 4 h
same,total systemic exposure (AUC0-inf),[2]; Day 28,312 ± 173 ng·h/mL
same,"Pre-dose/Cmin, mean ± SD","[2]; Day 28, plasma, ivermectin 1% cream once daily",1.36 ± 0.63 ng/mL
same,time of last quantifiable concentration after application,[2]; after Day 28,approximately 24 days
same,"apparent terminal half-life, range","[2]; after the last topical application (Day 28), 14 subjects",92 to 238 h
same,relative bioavailability vs oral administration of ivermectin,"[2]; steady state, topical",16%
